The compounds below were run against T1, human GPR120 (Homo sapiens, UniProt Q5NUL3) (assay: Intracellular Ca2+ assay in human GPR120 stable cell line (FLIPR Calcium 4 dye, Flexstation)). Conditions: HEK293, % activity at 2.5 µM compared to the maximal activity of the compound of Example 25 at 2.5 µM (=100%); HEK293 cells co-expressing Gqi5; read-out: % Activity (Ex. 25 Reference Compound).
T1 construct: host or cells: HEK293 cells co-expressing Gqi5
T1 sequence (Q5NUL3 1-361): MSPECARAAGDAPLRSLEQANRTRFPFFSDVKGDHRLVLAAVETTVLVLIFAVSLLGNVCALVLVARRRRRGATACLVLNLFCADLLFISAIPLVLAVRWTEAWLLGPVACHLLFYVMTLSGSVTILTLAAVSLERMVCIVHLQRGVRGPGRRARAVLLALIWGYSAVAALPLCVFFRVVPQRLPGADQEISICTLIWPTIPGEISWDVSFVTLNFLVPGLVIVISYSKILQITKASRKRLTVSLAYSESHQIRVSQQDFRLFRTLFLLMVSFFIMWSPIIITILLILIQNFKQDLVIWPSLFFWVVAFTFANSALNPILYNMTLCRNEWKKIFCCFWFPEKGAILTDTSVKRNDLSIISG
Type: cell-based
Method: Human GPR120 stable cell line was purchased from Multispan Inc (26219 Eden Landing Road, Hayward, CA94545). This GPR120 cell line was generated in HEK293 cells co-expressing Gqi5. In this cell line, the Flag epitope tag (DYKDDDDK) was fused to the amino terminus of human GPR120 protein.
The concentration of intracellular Ca^2+ was measured as described below. Human GPR120 cells were plated in 96 well plates (Poly-D-Lysine coated black/clear Plate, Greiner Bio-One) at 70,000 cells per well and cultured overnight in conditions of 37°C and 5% CO2. A Ca^2+ assay dye stock solution was prepared by adding 10 mL of assay buffer (HBSS/20mM HEPES, pH 7.4) to FLIPR Calcium 4 Assay Bulk Kit (Molecular Devices). The 10 mL of Ca^2+ assay dye solution was prepared by further diluting 0.5 mL of Ca^2+ assay dye stock solution with 10 mL of assay buffer. The medium of the cells was removed and immediately 100 µL of the Ca^2+ assay dye solution was dispensed into each well followed by incubation at 37°C and 5% CO2 for 50 minutes to incorporate the Ca^2+ dye into the cells. The cell plate was then placed in the Flexstation (Molecular Devices) for 20 minutes at 37°C. Compounds were dissolved in 100% DMSO and diluted to desired concentrations with assay buffer and placed in the Flexstation simultaneously with the cell plate for 20 minute incubation at 37°C prior to reading. Fluorescence intensity was measured immediately following compound addition (25 µL/well) on the Flexstation at an excitation wavelength of 485 nm and an emission wavelength of 525 with 515 nm auto cutoff. The resulting increase in fluorescence intensities corresponds to increases in intracellular Ca^2+ levels.
Compounds were dissolved in 100% DMSO to a concentration of 20 mM to provide stock solutions. To determine activity against human GPR120, compounds were added with human GPR120 stably expressing cells (described above), at eight desired concentrations ranging from 0.00001 to 20 µM, in 96 well plates and fluorescence intensities were measured for 90 seconds with 2-second intervals. An EC50 value (concentration of the GPR120 agonist where 50% of the agonist's maximal activity is observed) was calculated using the changes (Max-Min) of fluorescence intensity.
To determine percent activity for a tested compound, the fluorescence intensity value obtained at a particular concentration were compared to the maximal fluorescence intensity value obtained for reference compound GW9508 (4-[[(3-phenoxyphenyl)methyl]amino]benzene propanoic acid; British Journal of Pharmacology 2006 148, 619-628) or the compound of Example 25. When GW9508 was used as the reference compound, the maximal activity of GW9508 at 6.7µM was designated as 100% activity. When the compound of Example 25 was used as the reference compound, the maximal activity of the compound of Example 25 at 2.5 µM was designated as 100% activity. Typically, the GW9508 activity reached a maximum at a concentration of approximately 6.7 µM and typically the compound of Example 25 reached a maximum activity at approximately 2.5µM. […]
`COc1cc(CCC(=O)O)c(Br)cc1OCc1cc(F)cc2c1OC(C)(C)C2` [Example 56, 3-(2-bromo-4-((5-fluoro-2,2-dimethyl-2,3-dihydrobenzofuran-7-yl)methoxy)-5-methoxyphenyl)propanoic acid] showed an activity at 2.5 µM of 109%.
Work on `CC(Cc1ccc(OCc2cc(F)cc3c2OC(C)(C)C3)cc1)C(=O)NO` (centres unmarked) [Example 264, 3-(4-((5-fluoro-2,2-dimethyl-2,3-dihydrobenzofuran-7-yl)methoxy)phenyl)-N-hydroxy-2-methylpropanamide] yielded an activity at 2.5 µM of 110%.
Compound `Cc1cc(OCC(=O)O)ccc1OCc1cc(Cl)cc2c1OC(C)(C)C2` [Example 103, 2-(4-((5-chloro-2,2-dimethyl-2,3-dihydrobenzofuran-7-yl)methoxy)-3-methylphenoxy)acetic acid] has an activity at 2.5 µM of 99%.
`COc1cccc(-c2cc(COc3ccc(CC(C)C(=O)O)cc3)c3c(c2)CC(C)(C)O3)c1` (centres unmarked) [Example 86, 3-(4-((5-(3-methoxyphenyl)-2,2-dimethyl-2,3-dihydrobenzofuran-7-yl)methoxy)phenyl)-2-methylpropanoic acid] gave an activity at 2.5 µM of 5.23%.
Compound `CC1(C)Cc2cc(F)cc(COc3ccc4c(c3)CCCC4CC(=O)O)c2O1` (centres unmarked) [Example 153, 2-(6-((5-fluoro-2,2-dimethyl-2,3-dihydrobenzofuran-7-yl)methoxy)-1,2,3,4-tetrahydronaphthalen-1-yl)acetic acid] has an activity at 2.5 µM of 107%.
`Cc1c(CCC(=O)O)ccc(OCc2cc(Cl)cc3c2CC(C)(C)O3)c1C` [Example 267, 3-(4-((6-chloro-2,2-dimethyl-2,3-dihydrobenzofuran-4-yl)methoxy)-2,3-dimethylphenyl)propanoic acid] gave an activity at 2.5 µM of 141%.
Compound `[2H]C([2H])(C(=O)O)C([2H])([2H])c1ccc(OCc2cc(Cl)cc3c2OC(C)(C)C3)c(F)c1` [Example 241, 3-(4-((5-chloro-2,2-dimethyl-2,3-dihydrobenzofuran-7-yl)methoxy)-3-fluorophenyl)-2,2,3,3-tetradeuteriopropanoic acid] has an activity at 2.5 µM of 160%.
Work on `CC1(C)Cc2cc(Cl)cc(COc3ccc4c(c3)CC[C@H]4CC(=O)O)c2O1` [Example 176, (S)-2-(5-((5-chloro-2,2-dimethyl-2,3-dihydrobenzofuran-7-yl)methoxy)-2,3-dihydro-1H-inden-1-yl)acetic acid] yielded an activity at 2.5 µM of 138%.
`Cc1cc2cccc(COc3c(F)cc(CC(C)C(=O)O)cc3F)c2s1` (centres unmarked) [Example 151, 3-(3,5-difluoro-4-((2-methylbenzo[b]thiophen-7-yl)methoxy)phenyl)-2-methylpropanoic acid] showed an activity at 2.5 µM of 117%.
With `CC(Cc1ccc(OCc2cc(F)cc3c2OC2(CCCC2)C3)cc1)C(=O)O` (centres unmarked) [Example 162, 3-(4-((5-fluoro-3H-spiro[benzofuran-2,1'-cyclopentane]-7-yl)methoxy)phenyl)-2-methylpropanoic acid] the activity at 2.5 µM was 154%.
In the case of `CCOC(Cc1cc(F)c(OCc2cc(F)cc3c2OC(C)(C)C3)c(F)c1)C(=O)O` (centres unmarked) [Example 69, 3-(3,5-difluoro-4-((5-fluoro-2,2-dimethyl-2,3-dihydrobenzofuran-7-yl)methoxy)phenyl)-2-ethoxypropanoic acid], the activity at 2.5 µM is reported as 78.5%.
For `Cc1cc2c(OCc3cc(F)cc4c3OC(C)(C)C4)ccc(CCC(=O)O)c2o1` [Example 125, 3-(4-((5-fluoro-2,2-dimethyl-2,3-dihydrobenzofuran-7-yl)methoxy)-2-methylbenzofuran-7-yl)propanoic acid], the activity at 2.5 µM was 32.6%.
`[2H]C1([2H])c2cc(F)cc(COc3ccc(CC(C)C(=O)O)cc3)c2OC1(C)C` (centres unmarked) [Example 145, 3-(4-((3,3-dideuterio-5-fluoro-2,2-dimethyl-2,3-dihydrobenzofuran-7-yl)methoxy)phenyl)-2-methylpropanoic acid] gave an activity at 2.5 µM of 144%.
Work on `CC(=O)Nc1cc(COc2ccc(CC(C)C(=O)O)cc2)c2c(c1)CC(C)(C)O2` (centres unmarked) [Example 123, 3-(4-((5-acetamido-2,2-dimethyl-2,3-dihydrobenzofuran-7-yl)methoxy)phenyl)-2-methylpropanoic acid] yielded an activity at 2.5 µM of 47%.
For `CC1(C)Cc2cc(Cl)cc(COc3ccc(CCC(=O)O)c(F)c3)c2O1` [Example 53, 3-(4-((5-chloro-2,2-dimethyl-2,3-dihydrobenzofuran-7-yl)methoxy)-2-fluorophenyl)-propanoic acid], the activity at 2.5 µM was 143%.

Same assay, conditions: HEK293, % activity at 5 µM compared to the maximal activity of GW9508 at 6.7 µM (=100%); HEK293 cells co-expressing Gqi5; read-out: %Activity (GW9508 Reference Compound)
For `CC1(C)Cc2cc(F)cc(COc3c(F)cc(C4CC4C(=O)O)cc3F)c2O1` (centres unmarked) [Example 19, 2-(3,5-difluoro-4-((5-fluoro-2,2-dimethyl-2,3-dihydrobenzofuran-7-yl)methoxy)phenyl)cyclopropanecarboxylic acid], the activity at 5 µM was 126%.
`CC(Cc1cc(F)c(OCc2cccc3c2OC(C)(C)CC3)c(F)c1)C(=O)O` (centres unmarked) [Example 2, 3-(4-((2,2-dimethylchroman-8-yl)methoxy)-3,5-difluorophenyl)-2-methylpropanoic acid] gave an activity at 5 µM of 135%.
In the case of `CC(Cc1ccc(OCc2ccc(C(F)(F)F)c3c2OC(C)(C)C3)c(F)c1)C(=O)O` (centres unmarked) [Example 33, 3-(4-((2,2-dimethyl-4-(trifluoromethyl)-2,3-dihydrobenzofuran-7-yl)methoxy)-3-fluorophenyl)-2-methylpropanoic acid], the activity at 5 µM is reported as 143%.
Compound `Cc1cc(COc2c(F)cc(CC(C)C(=O)O)cc2F)c2c(c1)CC(C)(C)O2` (centres unmarked) [Example 5, 3-(3,5-difluoro-4-((2,2,5-trimethyl-2,3-dihydrobenzofuran-7-yl)methoxy)phenyl)-2-methylpropanoic acid] has an activity at 5 µM of 149%.
With `CC1(C)Cc2cc(F)cc(COc3ccc4c(c3)CCC4CC(=O)O)c2O1` (centres unmarked) [Example 37, 2-(5-((5-fluoro-2,2-dimethyl-2,3-dihydrobenzofuran-7-yl)methoxy)-2,3-dihydro-1H-inden-1-yl)acetic acid] the activity at 5 µM was 125%.
For `CC1(C)Cc2c(F)ccc(COc3c(F)cc(C4CC4C(=O)O)cc3F)c2O1` (centres unmarked) [Example 27, 2-(3,5-difluoro-4-((4-fluoro-2,2-dimethyl-2,3-dihydrobenzofuran-7-yl)methoxy)phenyl)cyclopropanecarboxylic acid], the activity at 5 µM was 144%.
`CC(Cc1ccc(OCc2ccc(F)c3c2OC(C)(C)C3)c(F)c1)C(=O)O` (centres unmarked) [Example 29, 3-(3-fluoro-4-((4-fluoro-2,2-dimethyl-2,3-dihydrobenzofuran-7-yl)methoxy)phenyl)-2-methylpropanoic acid] gave an activity at 5 µM of 134%.
Work on `CC(Cc1cc(F)c(OCc2cccc3c2CC(C)(C)O3)c(F)c1)C(=O)O` (centres unmarked) [Example 21, 3-(4-((2,2-dimethyl-2,3-dihydrobenzofuran-4-yl)methoxy)-3,5-difluorophenyl)-2-methylpropanoic acid] yielded an activity at 5 µM of 113%.
For `CC1(C)Cc2cccc(COc3c(F)cc(C4CC4C(=O)O)cc3F)c2O1` (centres unmarked) [Example 24, 2-(4-((2,2-dimethyl-2,3-dihydrobenzofuran-7-yl)methoxy)-3,5-difluorophenyl) cyclopropanecarboxylic acid], the activity at 5 µM was 100%.
Compound `CC(Cc1cc(Cl)c(OCc2cc(Cl)cc3c2OC(C)(C)C3)c(Cl)c1)C(=O)O` (centres unmarked) [Example 14, 3-(3,5-dichloro-4-((5-chloro-2,2-dimethyl-2,3-dihydrobenzofuran-7-yl)methoxy)phenyl)-2-methylpropanoic acid] has an activity at 5 µM of 84.5%.

Same assay, conditions: eight concentrations from 0.00001 to 20 µM; changes (Max-Min) of fluorescence intensity
With `CC(=O)Nc1cc(COc2ccc(CC(C)C(=O)O)cc2)c2c(c1)CC(C)(C)O2` (centres unmarked) [Example 123, 3-(4-((5-acetamido-2,2-dimethyl-2,3-dihydrobenzofuran-7-yl)methoxy)phenyl)-2-methylpropanoic acid] the EC50 was 1 to 10 µM.

Reference: patent EP2582674B1 (Cymabay Therapeutics, Inc., priority 2010, dated 2011)
